Several values for one entry are separate records, joined by “and”; a condition that tells them apart may be missing. Equal entries are not always repeated. Toxic doses and inconclusive results are not listed. No stated cut-off is given here; in the data, active means T/C of 150% or more; inactive means T/C below 125%.
Tested on: L1210 leukemia ip in BDF1 mice, survival T/C
Assay: NCI In Vivo Anticancer Drug Screen. Data for tumor model L1210 Leukemia (intraperitoneal) in B6D2F1 (BDF1) mice
Details: endpoint: mean survival time, higher = longer survival
Method in brief: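 Antitumor effect is assessed in tumor-bearing animals. Survival in the compound arm is compared with a vehicle-dosed control arm and expressed as their quotient.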

[1] = dose: 100.0 mg/kg/injection, schedule: Q01DX001 (ip), vehicle: Klucel (hydroxypropylcellulose) (HPC)
[2] = dose: 200.0 mg/kg/injection, schedule: Q01DX001 (ip), vehicle: Klucel (hydroxypropylcellulose) (HPC)
[3] = dose: 400.0 mg/kg/injection, schedule: Q01DX001 (ip), vehicle: Klucel (hydroxypropylcellulose) (HPC)
[4] = dose: 15.0 mg/kg/injection, schedule: Q01DX Z (ip), vehicle: carboxymethylcellulose (CMC)
[5] = dose: 30.0 mg/kg/injection, schedule: Q01DX Z (ip), vehicle: carboxymethylcellulose (CMC)
[6] = dose: 60.0 mg/kg/injection, schedule: Q01DX Z (ip), vehicle: carboxymethylcellulose (CMC)
[7] = dose: 120.0 mg/kg/injection, schedule: Q01DX Z (ip), vehicle: carboxymethylcellulose (CMC)
[8] = dose: 100.0 mg/kg/injection, schedule: Q01DX001 (ip), vehicle: carboxymethylcellulose (CMC)
[9] = dose: 200.0 mg/kg/injection, schedule: Q01DX001 (ip), vehicle: carboxymethylcellulose (CMC)
[10] = dose: 400.0 mg/kg/injection, schedule: Q01DX001 (ip), vehicle: carboxymethylcellulose (CMC)
[11] = dose: 100.0 mg/kg/injection, schedule: Q01DX009 (ip), vehicle: Klucel (hydroxypropylcellulose) (HPC)
[12] = dose: 200.0 mg/kg/injection, schedule: Q01DX009 (ip), vehicle: Klucel (hydroxypropylcellulose) (HPC)
[13] = dose: 100.0 mg/kg/injection, schedule: Q04DX003 (ip), vehicle: Klucel (hydroxypropylcellulose) (HPC)
[14] = dose: 200.0 mg/kg/injection, schedule: Q04DX003 (ip), vehicle: Klucel (hydroxypropylcellulose) (HPC)
[15] = dose: 400.0 mg/kg/injection, schedule: Q04DX003 (ip), vehicle: Klucel (hydroxypropylcellulose) (HPC)

Measured: T/C

CCOC(=O)C(C#N)(CC/C(C)=N/Nc1ccc([N+](=O)[O-])cc1[N+](=O)[O-])C(C)COC(C)=O (stereo unspecified)
inactive: [1] 94 % of control | [2] 91 % of control | [3] 102 % of control

CCCCCCCCCCCCCCCCCCNC(=S)NN=C(NNC(=S)NCCCCCCCCCCCCCCCCCC)NNC(=S)NCCCCCCCCCCCCCCCCCC
inactive: [4] 101 % of control | [5] 111 % of control | [6] 109 % of control and 114 % of control | [7] 114 % of control | dose: 240.0 mg/kg/injection, schedule: Q01DX Z (ip), vehicle: carboxymethylcellulose (CMC) 111 % of control | dose: 480.0 mg/kg/injection, schedule: Q01DX Z (ip), vehicle: carboxymethylcellulose (CMC) 111 % of control

CCCCCCCCCCCCCCCCN(C)c1ccc(C=O)cc1
inactive: dose: 100.0 mg/kg/injection, schedule: Q01DX009 (ip), vehicle: saline 97 % of control | dose: 100.0 mg/kg/injection, schedule: Q04DX003 (ip), vehicle: saline 104 % of control | dose: 200.0 mg/kg/injection, schedule: Q01DX009 (ip), vehicle: saline 100 % of control | dose: 200.0 mg/kg/injection, schedule: Q04DX003 (ip), vehicle: saline 98 % of control | dose: 400.0 mg/kg/injection, schedule: Q01DX009 (ip), vehicle: saline 103 % of control | dose: 400.0 mg/kg/injection, schedule: Q04DX003 (ip), vehicle: saline 105 % of control

CNc1ncnc2[nH]ncc12
inactive: dose: 50.0 mg/kg/injection, schedule: Q01DX001 (ip), vehicle: carboxymethylcellulose (CMC) 94 % of control | [8] 88 % of control | [9] 96 % of control | [10] 103 % of control

FC(F)(F)c1nnnn1Cc1ccccc1
inactive: dose: 50.0 mg/kg/injection, schedule: Q04DX002 (ip), vehicle: saline 93 % of control | dose: 100.0 mg/kg/injection, schedule: Q04DX002 (ip), vehicle: saline 101 % of control | dose: 200.0 mg/kg/injection, schedule: Q04DX002 (ip), vehicle: saline 101 % of control

CCOC(=O)/C=C1\CC2c3cc(OC)c(OC)cc3CCN2CC1CC (stereo unspecified)
inactive: dose: 50.0 mg/kg/injection, schedule: Q01DX009 (ip), vehicle: Klucel (hydroxypropylcellulose) (HPC) 93 % of control | [11] 96 % of control | [12] 96 % of control

Cc1ncnc2c1ncn2C1OC(CO)C(O)C1O (stereo unspecified)
inactive: dose: 0.24 mg/kg/injection, schedule: Q01DX015 (ip), vehicle: saline 103 % of control | dose: 0.36 mg/kg/injection, schedule: Q01DX015 (ip), vehicle: saline 106 % of control | dose: 0.54 mg/kg/injection, schedule: Q01DX015 (ip), vehicle: saline 116 % of control | dose: 1.21 mg/kg/injection, schedule: Q01DX015 (ip), vehicle: saline 109 % of control and 110 % of control

Nc1ncnc(N)c1NC(=O)COc1ccc([N+](=O)[O-])cc1
inactive: [1] 102 % of control | [2] 94 % of control | [3] 100 % of control

Oc1ccc(C=NCCN=Cc2ccc(O)cc2O)c(O)c1
inactive: dose: 8.0 mg/kg/injection, schedule: Q01DX009 (ip), vehicle: saline with Tween-80 87 % of control | dose: 12.0 mg/kg/injection, schedule: Q01DX009 (ip), vehicle: saline with Tween-80 89 % of control

O=C(O)c1ccc(NCO)cc1
inactive: dose: 100.0 mg/kg/injection, schedule: Q04DX003 (ip), vehicle: acetone 94 % of control | dose: 200.0 mg/kg/injection, schedule: Q04DX003 (ip), vehicle: acetone 102 % of control | dose: 400.0 mg/kg/injection, schedule: Q04DX003 (ip), vehicle: acetone 108 % of control

CC(=O)C(C[CH2][Hg][Cl])C(C)=O
inactive: dose: 9.37 mg/kg/injection, schedule: Q01DX001 (ip), vehicle: other 96 % of control | dose: 18.75 mg/kg/injection, schedule: Q01DX001 (ip), vehicle: other 97 % of control | dose: 37.5 mg/kg/injection, schedule: Q01DX001 (ip), vehicle: other 100 % of control

C#CCOC(=O)C(Cl)(Cl)Cl
inactive: dose: 100.0 mg/kg/injection, schedule: Q04DX002 (ip), vehicle: other 107 % of control | dose: 200.0 mg/kg/injection, schedule: Q04DX002 (ip), vehicle: other 96 % of control

O=c1[nH]c(=O)n(C2CCCO2)cc1I (stereo unspecified)
inactive: [8] 95 % of control | [9] 98 % of control | [10] 93 % of control

Nc1ccccc1SC1CC(=O)N(c2ccc(Br)cc2)C1=O (stereo unspecified)
inactive: dose: 100.0 mg/kg/injection, schedule: Q04DX002 (ip), vehicle: gum acacia 95 % of control | dose: 200.0 mg/kg/injection, schedule: Q04DX002 (ip), vehicle: gum acacia 88 % of control | dose: 400.0 mg/kg/injection, schedule: Q04DX002 (ip), vehicle: gum acacia 95 % of control

CN(C)P(=O)(c1ccccc1)c1ccccc1
inactive: dose: 100.0 mg/kg/injection, schedule: Q04DX002 (ip), vehicle: saline with Tween-80 112 % of control | dose: 200.0 mg/kg/injection, schedule: Q04DX002 (ip), vehicle: saline with Tween-80 102 % of control | dose: 400.0 mg/kg/injection, schedule: Q04DX002 (ip), vehicle: saline with Tween-80 94 % of control

CC(C)=NNc1ccnc(SCc2ccccc2)n1
inactive: [13] 96 % of control | [14] 97 % of control | [15] 102 % of control

O=C(Nc1ccc(-c2nc3ccccc3[nH]2)cc1)c1ccc(C(=O)Nc2ccc(-c3nc4ccccc4[nH]3)cc2)cc1
inactive: [4] 97 % of control | [5] 97 % of control | [6] 94 % of control | [7] 100 % of control

CN(C)CSc1nc2ccccc2s1
inactive: dose: 50.0 mg/kg/injection, schedule: Q01DX009 (ip), vehicle: saline with Tween-80 93 % of control | dose: 100.0 mg/kg/injection, schedule: Q01DX009 (ip), vehicle: saline with Tween-80 89 % of control | dose: 200.0 mg/kg/injection, schedule: Q01DX009 (ip), vehicle: saline with Tween-80 93 % of control

O=S(=O)(Nc1ccccc1)c1ccc(C2CC3(Cl)C(Cl)=C(Cl)C2(Cl)C3(Cl)Cl)cc1 (stereo unspecified)
inactive: dose: 29.0 mg/kg/injection, schedule: Q01DX015 (ip), vehicle: carboxymethylcellulose (CMC) 97 % of control | dose: 44.0 mg/kg/injection, schedule: Q01DX015 (ip), vehicle: carboxymethylcellulose (CMC) 104 % of control | dose: 66.0 mg/kg/injection, schedule: Q01DX015 (ip), vehicle: carboxymethylcellulose (CMC) 95 % of control | dose: 88.8 mg/kg/injection, schedule: Q01DX001 (ip), vehicle: carboxymethylcellulose (CMC) 96 % of control and 100 % of control | [8] 110 % of control | dose: 100.0 mg/kg/injection, schedule: Q01DX009 (ip), vehicle: saline sonified 86 % of control | dose: 100.0 mg/kg/injection, schedule: Q01DX015 (ip), vehicle: carboxymethylcellulose (CMC) 92 % of control | [13] 100 % of control | dose: 133.0 mg/kg/injection, schedule: Q01DX001 (ip), vehicle: carboxymethylcellulose (CMC) 107 % of control | [9] 96 % of control and 100 % of control | dose: 200.0 mg/kg/injection, schedule: Q01DX015 (ip), vehicle: carboxymethylcellulose (CMC) 93 % of control | [14] 97 % of control | dose: 300.0 mg/kg/injection, schedule: Q01DX001 (ip), vehicle: carboxymethylcellulose (CMC) 100 % of control and 109 % of control | [10] 105 % of control | dose: 400.0 mg/kg/injection, schedule: Q01DX009 (ip), vehicle: saline sonified 98 % of control | dose: 400.0 mg/kg/injection, schedule: Q01DX015 (ip), vehicle: carboxymethylcellulose (CMC) 89 % of control | [15] 92 % of control

O=C1c2nc3ccccc3nc2C(=O)N1O
inactive: [11] 107 % of control | [12] 100 % of control

O=C(CCCCCCCCC(=O)Nc1ccccc1F)Nc1ccccc1F
inactive: [11] 101 % of control | [12] 102 % of control | dose: 400.0 mg/kg/injection, schedule: Q01DX009 (ip), vehicle: Klucel (hydroxypropylcellulose) (HPC) 101 % of control

C/C=C1\CN(C(=O)C(NC(=O)C(N)C(O)C(O)COC(N)=O)C2OC(n3cc(CO)c(=O)[nH]c3=O)C(O)C2O)C1C(=O)O (stereo unspecified) (tested in a mixture with another compound)
inactive: dose: 100.0 mg/kg/injection, schedule: Q01DX001 (ip), vehicle: saline 95 % of control | dose: 200.0 mg/kg/injection, schedule: Q01DX001 (ip), vehicle: saline 106 % of control | dose: 400.0 mg/kg/injection, schedule: Q01DX001 (ip), vehicle: saline 105 % of control

Reference: PubChem BioAssay AID248 (DTP/NCI, 2004)
